In patent US9931335B2, “Desethylhydroxychloroquine for the treatment of diseases associated with inflammation” (The Board of Trustees of the Leland Stanford Junior …, priority 2013, dated 2018):
“Also recorded” adds a separate entry of the source. Where two headings read alike, the source gives them in different places.

Columns and labels:
[1] = LC/MS tissue levels of HCQ and DHCQ in plasma, retina and synovium of dosed mice; format: in vivo, mouse; settings: for accumulation in the retina: 100 mg/kg/day oral gavage, LC/MS
Description: The major risk to long term administration of hydroxychloroquine is retinal accumulation and subsequent ocular toxicity (Terahi et al, 2008. Semin Opthal. (3):201-208. PMID). We sought to evaluate the retinal deposition of HCQ and DHCQ. To do so, we performed mass spectrometric analysis of drug and metabolite content in retina, in operated side and non-operated side synovial tissue, and in plasma derived from mice treated with either HCQ or DHCQ. […] The indicated statistical comparisons between the levels measured in the indicated tissue from each group were compared by two-tailed T test (*P<0.05, **P<0.01, ***P<0.001).
Mice, dosing with HCQ and DHCQ, isolation of specific tissues, and mass spectrometry measurement of HCQ and DHCQ levels in tissue samples. C57BL6 (B6) mice (n=5 per group) were treated with HCQ (100 mg/kg/day) or DHCQ (100 mg/kg/day) by oral gavage for 3 months. At experimental termination (3 months) mice were sacrificed and eyes removed under dissecting microscope. Curved microdisecting scissors was used to cut along the cornea and sclera, remove and discard the lens and visceral leaving the neural retina with eye shell to be placed in PBS and homogenized followed by centrifugation. Synovium was microdissected from the operated knee or the contralateral non-operated knee, normalized by weight of tissue, and placed in HPLC grade water before being homogenized and centrifuged. Plasma was obtained by tail bleeding. Plasma and tissue samples were precipitated with acetonitrile and levels of HCQ, DHCQ, BDCQ were evaluated by liquid chromatography/mass spectrometry (LC/MS) at Climax Laboratories, Inc. (San Jose, Calif.). The LC/MS analysis was conducted by using Shimazu 10A HPLC system (Shimadzu Scientific Instruments, Inc., Pleasanton, Calif.) with ACE C18, 50×2.1 HPLC column and ABSciex API-4000 Mass Spectrometer (ABSciex Corp. Foster City, Calif.) with Electrospray Ionization (ESI) and negative Multiple Reaction Monitoring (MRM) Scan. A gradient elution was used in separating the test compound with a mobile phase A (0.1% Formic Acid in 5 mM of NH4AC) and B (0.1% Formic acid in acetonitrile).

[2] = tested on: inflammatory cytokines in mouse OA synovium; experiment: Multiplex cytokine assay of OA synovial tissue from treated DMM mice; format: in vivo; settings: for levels of inflammatory cytokines in OA synovium vs vehicle control: heat map, multiplex bead assay
Description: From a parallel experiment to the mouse OA experiment presented in Example 12 and FIG. 19, following in vivo dosing and at the time of termination OA synovial tissue was microdissected, homogenized to form a lysate, centrifuged, and supernatants assayed for levels of inflammatory cytokines using a multiplex bead-based cytokine assay (BioRad Laboratories, Hercules, Calif.).

ARPE-19 cells = tested on: ARPE-19 cells
Experimental: The major serious risk to long term administration of hydroxychloroquine is retinal accumulation and subsequent ocular toxicity (Terahi et al, 2008. Semin Opthal. (3):201-208. PMID). The ocular deposition of HCQ, DHCQ, and BDCQ was evaluated by direct retinal cellular toxicity by incubating equivalent concentrations of these molecules with the retinal pigmented epithelial cell line ARPE-19. ARPE-19 is a human retinal pigment epithelial cell line with differentiated properties (Dunn et al., Exp Eye Res. 1996 62(2):155-69). ARPE-19 cells were grown to 90% confluence, and then exposed to 10 µg/ml of HCQ, DHCQ, BDCQ, or vehicle control for 24 hours, following which microscopic analysis and photomicroscopy was performed at 40× power.
As described above, ARPE-19 cells were grown to 90% confluence then exposed to 10 μg/ml HCQ, DHCQ, BDCQ, or vehicle control for 24 hours followed by quantitation of cell death by lactate dehydrogenase (LDH) release assay (Abcam).

[3] = tested on: DMM-induced OA in C57BL6 (B6) mice; experiment: Destabilization of the medial meniscus (DMM) mouse model of osteoarthritis; format: in vivo; settings: 3 months, vs vehicle; for Cartilage Degeneration Score (OA score): aminoquinolines 100 mg/kg/day, atorvastatin 40 mg/kg/day, oral gavage from 1 week after DMM, two-tailed T test
Experimental: One week following surgical induction, treatment was initiated with vehicle control, hydroxychloroquine (HCQ), or desethylhydroxychloroquine (DHCQ) dosed at 100 mg/kg/day by oral gavage (once per day). After 3 months, mice were sacrificed, joints harvested, joint sections cut, and tissue sections stained with safranin-O. An examiner blinded to treatment used microscopy to score the severity of OA. The “Cartilage Degeneration Score” (also known as the “OA score”, “Severity Score” and “Histology Score”) was determined by a blinded examiner, and the two-tailed T test used to determine if there were statistical differences in the Cartilage Degeneration Scores between groups.
The histologic sections generated at the termination of the mouse OA experiment presented above and in FIG. 5 were subject to blinded scoring for the “Osteophyte Score” (measure of the amount of osteophyte or ectopic bone formation) and “Synovitis Score” (measure of the amount of synovial and joint inflammation). The scores between groups were compared by two-tailed T test.
Experiments were performed under protocols approved by the Stanford University Committee of Animal Research and in accordance with NIH guidelines. Murine OA was generated by surgically by destabilization of the DMM (Glasson, S., S., et al., Osteoarthritis Cartilage, 15: 1061-1069 (2007)).
Mice were euthanized 3 months after surgery. Their stifle joints were decalcified in EDTA solution, fixed in 4% paraformaldehyde, and embedded in paraffin. Serial 4 micron sections were cut and stained with toluidine blue. Scoring of arthritis in these histology sections was done according to a modified version of previously described composite scoring systems (Kamekura, S., et al. Osteoarthritis Cartilage 13: 632-641 (2005); Bendele, A. M., J Musculoskelet Neuronal Interact., 1: 363-376 (2001)). The “OA Score” was calculated as follows: cartilage degeneration (0-4) was multiplied by the width (1=1/3, 2=2/3, and 3=3/3 of surface area) of each third of the femoral-medial and tibial-medial condyles, and the scores for the 6 regions were summed. To evaluate osteophyte (ectopic bone) formation, we scored toluidine-blue-stained sections according to a previously described scoring system (Kamekura, S., et al. Osteoarthritis development in novel experimental mouse models induced by knee joint instability. Osteoarthritis Cartilage 13, 632-641 (2005)): 0, none; 1, formation of cartilage-like tissues; 2, increase of cartilaginous matrix; 3, endochondral ossification. To evaluate synovitis, we scored H&E-stained sections according to a previously described scoring system (Blom, A. B., et al. Synovial lining macrophages mediate osteophyte formation during experimental osteoarthritis. Osteoarthritis Cartilage 12, 627-635 (2004)): 0, no changes compared to normal joints; 1, thickening of the synovial lining and some influx of inflammatory cells; 2, thickening of the synovial lining and intermediate influx of inflammatory cells; and 3, profound thickening of the synovial lining (more than four cell layers) and maximal observed influx of inflammatory cells. Scores for osteophyte formation and synovitis were recorded for the femoral-medial and the tibial-medial condyles on the operated side of the joint, and the scores for the two regions were summed and statistical comparisons performed using a two-tailed T test.
Treatment was started 1 week after surgical induction of destabilization of the medial meniscus (DMM), a time point at which mice were at increased risk for the development of OA.

| SMILES | accumulation in the retina ([1]; 3 months) | level in surgical joint synovial tissue relative to retina ([1]; 100 mg/kg/day, 3 months) | level in retina relative to plasma ([1]; DHCQ in both HCQ and DHCQ dosed mice) | cytokines, DHCQ monotherapy vs vehicle control, atorvastatin alone, HCQ+atorvastatin and HCQ alone (SAM) ([2]; false discovery rate <0.1%) | levels of inflammatory cytokines in OA synovium vs vehicle control [2] | ARPE-19 cellular toxicity by microscopy (ARPE-19 cells; human, 24 h, 10 µg/ml) | Osteophyte Score ([3]; 100 mg/kg/day oral gavage) | Cartilage Degeneration Score (OA score) [3] | Synovitis Score ([3]; oral gavage) | Kp at 3 months ([1]; C57BL6, mouse, retina/plasma, oral, HCQ in HCQ dosed mice, 100 mg/kg/day, 3 months, read-out: level in retina/level in plasma) | ARPE-19 cellular toxicity by microscopy (ARPE-19 cells) | Cartilage Degeneration Score (OA score) ([3]; listed as Hydroxychloroquine) |
| --- | --- | --- | --- | --- | --- | --- | --- | --- | --- | --- | --- | --- |
| CC(CCCNCCO)Nc1ccnc2cc(Cl)ccc12 (stereo not shown) [DHCQ, desethylhydroxychloroquine] | only low-level accumulation in the retina | accumulated at higher levels in the surgical joint synovial tissue relative to the low levels measured in the retina | much lower levels in plasma as compared to the retina | reduced the levels of multiple inflammatory cytokines including IL-1b, MCP-1, IFNγ, TNF-alpha IL12p40, and IL-12p70 | lower | less ARPE-19 cellular toxicity | statistically prevented and reduced; also recorded: statistically significant protection against the development of synovitis and osteophytes | statistically prevented and reduced the severity of OA; also recorded: statistically prevented and reduced the severity of cartilage degeneration | statistically prevented and reduced; also recorded: statistically significant protection against the development of synovitis and osteophytes | – | – | – |
| CCN(CCO)CCCC(C)Nc1ccnc2cc(Cl)ccc12 (stereo not shown) [HCQ, hydroxychloroquine] | accumulated a high levels in the retina | accumulated at high levels in the retina relative to the low levels measured in the surgical joint synovial tissue | – | – | lower | – | – | only resulted in trends towards improvement; also recorded: did not result in a statistically significant reduction in the severity of OA | – | ~8.5 | increased cytotoxicity and death | did not result in a statistically signification prevention or reduction in OA severity |
